{
  "source": "ChEMBL document CHEMBL5442175",
  "about": "“EUbOPEN Chemogenomics Library - PDSP Secondary Binding” (2024)",
  "key": {"[1]": {"biological_target": "Delta-type opioid receptor (Homo sapiens, UniProt P41143)", "sequence (P41143 whole entry)": "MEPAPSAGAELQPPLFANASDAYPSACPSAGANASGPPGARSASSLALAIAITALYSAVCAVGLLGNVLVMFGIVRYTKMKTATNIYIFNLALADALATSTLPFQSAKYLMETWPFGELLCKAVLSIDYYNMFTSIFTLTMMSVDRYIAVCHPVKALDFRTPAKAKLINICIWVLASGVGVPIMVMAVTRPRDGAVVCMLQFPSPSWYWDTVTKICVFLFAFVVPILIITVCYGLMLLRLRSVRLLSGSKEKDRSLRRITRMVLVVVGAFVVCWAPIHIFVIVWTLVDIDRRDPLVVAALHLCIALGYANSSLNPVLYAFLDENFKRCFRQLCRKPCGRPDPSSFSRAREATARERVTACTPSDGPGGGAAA", "assay": "(§1) PDSP Secondary Binding target: OPRD1 - Compounds are tested at 10 uM concentration, plate are incubated at room temperature in the dark for 90 minutes. Reaction are stopped by vacuum filtration onto 0.3% polyethyleneimine soaked filter mats using Filtermate harvester. Scintillation cocktail is then melted onto microwave-dried filters on a hot plate and the radio activity is counted in Microbia counter."}, "[2]": {"biological_target": "Sodium-dependent dopamine transporter (Homo sapiens, UniProt Q01959)", "sequence (Q01959 whole entry)": "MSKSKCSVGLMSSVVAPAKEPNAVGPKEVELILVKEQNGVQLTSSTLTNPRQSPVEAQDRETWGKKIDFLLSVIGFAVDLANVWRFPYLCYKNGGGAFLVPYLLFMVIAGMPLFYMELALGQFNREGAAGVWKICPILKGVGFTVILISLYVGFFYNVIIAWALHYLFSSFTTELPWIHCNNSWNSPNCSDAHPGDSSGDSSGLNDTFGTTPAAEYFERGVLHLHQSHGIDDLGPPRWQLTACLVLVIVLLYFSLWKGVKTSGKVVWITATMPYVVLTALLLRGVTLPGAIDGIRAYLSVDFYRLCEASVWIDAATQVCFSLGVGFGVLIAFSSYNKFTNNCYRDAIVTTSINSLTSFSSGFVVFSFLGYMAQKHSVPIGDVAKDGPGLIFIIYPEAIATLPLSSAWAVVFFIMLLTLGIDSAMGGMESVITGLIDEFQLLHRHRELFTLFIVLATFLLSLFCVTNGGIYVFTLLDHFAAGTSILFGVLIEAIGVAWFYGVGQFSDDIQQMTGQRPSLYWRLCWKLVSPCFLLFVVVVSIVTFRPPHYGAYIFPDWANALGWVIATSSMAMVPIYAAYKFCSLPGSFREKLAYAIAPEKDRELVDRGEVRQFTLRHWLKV", "assay": "as §1, with “SLC6A3” for “OPRD1”"}, "Histamine H4 receptor": {"biological_target": "Histamine H4 receptor (Homo sapiens, UniProt Q9H3N8)", "sequence (Q9H3N8 whole entry)": "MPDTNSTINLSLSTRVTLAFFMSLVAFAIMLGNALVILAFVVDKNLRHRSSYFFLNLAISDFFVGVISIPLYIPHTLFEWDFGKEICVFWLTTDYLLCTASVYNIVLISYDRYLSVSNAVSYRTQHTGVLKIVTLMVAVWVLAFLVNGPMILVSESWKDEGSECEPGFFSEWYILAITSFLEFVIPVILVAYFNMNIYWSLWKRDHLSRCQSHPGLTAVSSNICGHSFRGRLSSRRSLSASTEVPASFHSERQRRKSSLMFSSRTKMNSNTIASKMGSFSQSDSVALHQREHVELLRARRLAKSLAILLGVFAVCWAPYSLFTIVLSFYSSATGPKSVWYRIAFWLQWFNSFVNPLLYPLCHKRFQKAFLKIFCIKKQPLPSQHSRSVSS", "assay": "as §1, with “HRH4” for “OPRD1”"}, "[3]": {"biological_target": "T1, Alpha-2A adrenergic receptor (Homo sapiens, UniProt P08913)", "T1 sequence (P08913 whole entry)": "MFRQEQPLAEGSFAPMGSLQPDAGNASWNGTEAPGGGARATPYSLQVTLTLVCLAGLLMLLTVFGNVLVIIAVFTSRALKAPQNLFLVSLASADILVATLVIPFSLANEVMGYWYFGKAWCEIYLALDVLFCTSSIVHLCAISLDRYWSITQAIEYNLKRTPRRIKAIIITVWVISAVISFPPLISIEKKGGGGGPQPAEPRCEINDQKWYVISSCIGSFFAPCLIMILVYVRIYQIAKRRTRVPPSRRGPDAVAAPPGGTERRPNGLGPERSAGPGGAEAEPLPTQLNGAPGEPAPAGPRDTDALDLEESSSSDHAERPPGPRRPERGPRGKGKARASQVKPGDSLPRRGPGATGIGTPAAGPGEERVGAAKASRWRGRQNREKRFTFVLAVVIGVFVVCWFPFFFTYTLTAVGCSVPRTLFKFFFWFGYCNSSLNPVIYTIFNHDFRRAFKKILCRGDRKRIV", "assay": "as §1, with “ADRA2A” for “OPRD1”"}, "Histamine H3 receptor": {"biological_target": "Histamine H3 receptor (Homo sapiens, UniProt Q9Y5N1)", "assay": "as §1, with “HRH3” for “OPRD1”"}, "[4]": {"biological_target": "T2, Muscarinic acetylcholine receptor M5 (Homo sapiens, UniProt P08912)", "T2 sequence (P08912 whole entry)": "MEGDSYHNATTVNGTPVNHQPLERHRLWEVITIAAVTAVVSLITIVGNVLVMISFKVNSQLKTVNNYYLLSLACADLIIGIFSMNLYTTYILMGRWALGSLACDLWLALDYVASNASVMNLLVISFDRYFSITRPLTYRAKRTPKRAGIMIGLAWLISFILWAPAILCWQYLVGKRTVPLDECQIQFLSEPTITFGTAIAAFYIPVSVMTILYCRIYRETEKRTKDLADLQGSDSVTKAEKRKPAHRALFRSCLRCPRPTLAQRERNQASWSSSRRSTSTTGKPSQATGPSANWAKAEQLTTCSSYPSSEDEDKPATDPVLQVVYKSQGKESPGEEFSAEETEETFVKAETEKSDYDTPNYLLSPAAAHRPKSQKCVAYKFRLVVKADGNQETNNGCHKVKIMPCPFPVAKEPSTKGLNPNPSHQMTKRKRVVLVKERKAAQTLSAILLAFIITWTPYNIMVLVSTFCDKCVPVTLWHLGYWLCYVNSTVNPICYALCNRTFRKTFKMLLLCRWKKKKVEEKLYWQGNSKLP", "assay": "as §1, with “CHRM5” for “OPRD1”"}, "Mu-type opioid receptor": {"biological_target": "Mu-type opioid receptor (Homo sapiens, UniProt P35372)", "sequence (P35372 whole entry)": "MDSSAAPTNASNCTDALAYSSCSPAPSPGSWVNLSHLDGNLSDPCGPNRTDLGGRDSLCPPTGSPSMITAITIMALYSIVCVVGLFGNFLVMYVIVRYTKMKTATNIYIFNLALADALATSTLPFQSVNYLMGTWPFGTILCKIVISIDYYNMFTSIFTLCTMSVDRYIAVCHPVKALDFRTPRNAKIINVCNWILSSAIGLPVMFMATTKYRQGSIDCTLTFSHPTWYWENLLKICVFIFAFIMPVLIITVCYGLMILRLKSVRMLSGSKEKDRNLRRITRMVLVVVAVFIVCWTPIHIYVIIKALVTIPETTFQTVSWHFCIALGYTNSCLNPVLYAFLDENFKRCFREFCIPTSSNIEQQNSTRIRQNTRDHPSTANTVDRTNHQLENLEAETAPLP", "assay": "as §1, with “OPRM1” for “OPRD1”"}, "[5]": {"biological_target": "5-hydroxytryptamine receptor 2A (Homo sapiens, UniProt P28223)", "sequence (P28223 whole entry)": "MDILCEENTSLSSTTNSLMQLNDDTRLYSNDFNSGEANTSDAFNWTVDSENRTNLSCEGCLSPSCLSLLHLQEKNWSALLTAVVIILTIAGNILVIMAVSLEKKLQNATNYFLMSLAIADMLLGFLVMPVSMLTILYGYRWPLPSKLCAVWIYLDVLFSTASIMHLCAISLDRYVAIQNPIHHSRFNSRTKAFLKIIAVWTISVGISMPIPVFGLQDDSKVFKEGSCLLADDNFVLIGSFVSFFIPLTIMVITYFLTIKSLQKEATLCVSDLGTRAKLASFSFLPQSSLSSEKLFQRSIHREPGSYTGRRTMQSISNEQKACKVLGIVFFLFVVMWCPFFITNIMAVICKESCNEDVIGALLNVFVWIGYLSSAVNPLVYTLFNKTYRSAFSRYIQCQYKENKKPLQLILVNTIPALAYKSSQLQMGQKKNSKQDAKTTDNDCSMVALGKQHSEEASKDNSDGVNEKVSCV", "assay": "as §1, with “HTR2A” for “OPRD1”"}, "[6]": {"biological_target": "Sigma intracellular receptor 2 (Homo sapiens, UniProt Q5BJF2)", "sequence (Q5BJF2 whole entry)": "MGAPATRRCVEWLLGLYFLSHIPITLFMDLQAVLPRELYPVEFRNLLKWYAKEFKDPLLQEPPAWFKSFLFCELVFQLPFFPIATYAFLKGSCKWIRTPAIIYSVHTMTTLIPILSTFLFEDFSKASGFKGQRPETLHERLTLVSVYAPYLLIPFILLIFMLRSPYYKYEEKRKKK", "assay": "as §1, with “TMEM97” for “OPRD1”"}, "Histamine H1 receptor": {"biological_target": "Histamine H1 receptor (Homo sapiens, UniProt P35367)", "sequence (P35367 whole entry)": "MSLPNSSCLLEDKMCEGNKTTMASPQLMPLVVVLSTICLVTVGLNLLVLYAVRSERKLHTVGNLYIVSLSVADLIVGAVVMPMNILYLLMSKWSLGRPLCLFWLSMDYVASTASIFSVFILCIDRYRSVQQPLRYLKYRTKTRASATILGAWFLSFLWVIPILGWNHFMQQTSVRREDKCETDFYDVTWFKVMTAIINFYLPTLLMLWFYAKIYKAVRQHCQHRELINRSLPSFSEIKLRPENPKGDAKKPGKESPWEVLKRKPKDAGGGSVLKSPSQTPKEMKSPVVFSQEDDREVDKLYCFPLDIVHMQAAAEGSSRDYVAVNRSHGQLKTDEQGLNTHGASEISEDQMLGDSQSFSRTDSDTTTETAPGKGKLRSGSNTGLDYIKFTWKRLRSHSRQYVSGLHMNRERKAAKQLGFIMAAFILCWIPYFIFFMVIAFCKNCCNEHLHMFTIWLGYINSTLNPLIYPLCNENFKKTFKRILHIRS", "assay": "as §1, with “HRH1” for “OPRD1”"}, "[7]": {"biological_target": "Sodium-dependent noradrenaline transporter (Homo sapiens, UniProt P23975)", "assay": "as §1, with “SLC6A2” for “OPRD1”"}, "[8]": {"biological_target": "Beta-2 adrenergic receptor (Homo sapiens, UniProt P07550)", "sequence (P07550 whole entry)": "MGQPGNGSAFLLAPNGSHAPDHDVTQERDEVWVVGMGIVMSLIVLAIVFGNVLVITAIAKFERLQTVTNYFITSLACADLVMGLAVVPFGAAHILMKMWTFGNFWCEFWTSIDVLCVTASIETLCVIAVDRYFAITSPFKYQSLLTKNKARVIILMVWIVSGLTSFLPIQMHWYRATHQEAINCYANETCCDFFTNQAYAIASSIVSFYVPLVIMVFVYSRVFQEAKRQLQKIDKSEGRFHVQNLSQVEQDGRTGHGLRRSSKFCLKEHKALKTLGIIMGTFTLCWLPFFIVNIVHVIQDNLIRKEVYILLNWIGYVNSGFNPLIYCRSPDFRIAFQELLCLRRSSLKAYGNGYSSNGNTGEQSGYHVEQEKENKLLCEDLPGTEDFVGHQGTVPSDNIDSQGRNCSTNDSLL", "assay": "as §1, with “ADRB2” for “OPRD1”"}, "D(4) dopamine receptor": {"biological_target": "T3, D(4) dopamine receptor (Homo sapiens, UniProt P21917)", "T3 sequence (P21917 whole entry)": "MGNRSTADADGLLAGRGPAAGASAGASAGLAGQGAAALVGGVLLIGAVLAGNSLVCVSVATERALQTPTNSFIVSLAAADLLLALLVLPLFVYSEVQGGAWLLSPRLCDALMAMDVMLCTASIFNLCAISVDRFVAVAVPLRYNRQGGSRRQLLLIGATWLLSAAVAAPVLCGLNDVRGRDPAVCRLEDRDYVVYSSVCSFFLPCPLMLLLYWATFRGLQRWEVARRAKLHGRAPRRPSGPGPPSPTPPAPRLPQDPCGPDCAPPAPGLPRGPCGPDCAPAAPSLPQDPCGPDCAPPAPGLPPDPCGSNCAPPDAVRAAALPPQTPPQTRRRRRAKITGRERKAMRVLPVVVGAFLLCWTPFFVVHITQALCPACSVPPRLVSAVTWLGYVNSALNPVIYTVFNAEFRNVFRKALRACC", "assay": "as §1, with “DRD4” for “OPRD1”"}, "[9]": {"biological_target": "T4, Muscarinic acetylcholine receptor M2 (Homo sapiens, UniProt P08172)", "T4 sequence (P08172 whole entry)": "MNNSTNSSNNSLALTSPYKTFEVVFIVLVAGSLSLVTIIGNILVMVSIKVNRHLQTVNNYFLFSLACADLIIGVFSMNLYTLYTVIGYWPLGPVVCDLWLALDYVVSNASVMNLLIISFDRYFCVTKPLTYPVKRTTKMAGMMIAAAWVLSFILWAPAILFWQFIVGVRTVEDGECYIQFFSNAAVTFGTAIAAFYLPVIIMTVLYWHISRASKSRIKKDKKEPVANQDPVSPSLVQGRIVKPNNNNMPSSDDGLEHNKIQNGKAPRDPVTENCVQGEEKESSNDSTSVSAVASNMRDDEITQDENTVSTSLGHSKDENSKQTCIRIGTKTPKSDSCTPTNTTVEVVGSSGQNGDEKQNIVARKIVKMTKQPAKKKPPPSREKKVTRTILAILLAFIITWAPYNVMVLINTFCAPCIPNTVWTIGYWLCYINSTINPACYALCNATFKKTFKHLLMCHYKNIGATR", "assay": "as §1, with “CHRM2” for “OPRD1”"}, "[10]": {"biological_target": "T5, Muscarinic acetylcholine receptor M1 (Homo sapiens, UniProt P11229)", "T5 sequence (P11229 whole entry)": "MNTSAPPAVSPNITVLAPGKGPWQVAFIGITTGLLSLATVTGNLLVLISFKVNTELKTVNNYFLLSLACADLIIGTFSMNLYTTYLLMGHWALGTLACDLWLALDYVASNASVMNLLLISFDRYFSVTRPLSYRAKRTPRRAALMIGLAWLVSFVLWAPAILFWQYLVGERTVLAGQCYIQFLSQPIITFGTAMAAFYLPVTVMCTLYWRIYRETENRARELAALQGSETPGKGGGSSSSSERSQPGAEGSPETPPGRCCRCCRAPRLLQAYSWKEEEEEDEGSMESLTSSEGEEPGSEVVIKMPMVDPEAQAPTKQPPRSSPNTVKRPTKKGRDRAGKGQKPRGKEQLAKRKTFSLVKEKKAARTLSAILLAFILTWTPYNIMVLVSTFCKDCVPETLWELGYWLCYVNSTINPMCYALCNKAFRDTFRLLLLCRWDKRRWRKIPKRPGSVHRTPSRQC", "assay": "as §1, with “CHRM1” for “OPRD1”"}, "Histamine H2 receptor": {"biological_target": "Histamine H2 receptor (Homo sapiens, UniProt P25021)", "assay": "as §1, with “HRH2” for “OPRD1”"}, "[11]": {"biological_target": "T6, Muscarinic acetylcholine receptor M4 (Homo sapiens, UniProt P08173)", "T6 sequence (P08173 whole entry)": "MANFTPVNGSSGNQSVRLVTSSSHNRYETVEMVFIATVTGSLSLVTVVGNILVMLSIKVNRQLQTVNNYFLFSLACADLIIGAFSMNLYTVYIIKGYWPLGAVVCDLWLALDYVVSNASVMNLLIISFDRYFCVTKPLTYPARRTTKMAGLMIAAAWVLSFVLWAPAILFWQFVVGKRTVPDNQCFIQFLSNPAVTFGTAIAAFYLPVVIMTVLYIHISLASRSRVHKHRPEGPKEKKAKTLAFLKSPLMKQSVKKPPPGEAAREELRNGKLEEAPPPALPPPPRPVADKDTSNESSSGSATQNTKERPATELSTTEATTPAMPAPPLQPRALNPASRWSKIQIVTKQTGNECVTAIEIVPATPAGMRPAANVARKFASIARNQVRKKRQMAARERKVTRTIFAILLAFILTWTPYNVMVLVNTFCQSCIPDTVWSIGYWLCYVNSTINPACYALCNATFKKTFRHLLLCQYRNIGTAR", "assay": "as §1, with “CHRM4” for “OPRD1”"}, "D(3) dopamine receptor": {"biological_target": "D(3) dopamine receptor (Homo sapiens, UniProt P35462)", "sequence (P35462 whole entry)": "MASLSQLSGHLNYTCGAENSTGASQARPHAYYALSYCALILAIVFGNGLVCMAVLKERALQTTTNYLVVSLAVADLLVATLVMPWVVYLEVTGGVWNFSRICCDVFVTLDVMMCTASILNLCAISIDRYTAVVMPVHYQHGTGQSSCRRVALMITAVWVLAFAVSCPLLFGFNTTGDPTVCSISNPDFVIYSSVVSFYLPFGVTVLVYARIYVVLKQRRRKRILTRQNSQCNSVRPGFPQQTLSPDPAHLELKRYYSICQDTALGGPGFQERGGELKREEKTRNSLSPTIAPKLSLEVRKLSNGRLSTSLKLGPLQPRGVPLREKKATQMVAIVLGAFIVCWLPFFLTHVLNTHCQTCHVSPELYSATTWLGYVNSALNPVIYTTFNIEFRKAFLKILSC", "assay": "as §1, with “DRD3” for “OPRD1”"}, "[12]": {"biological_target": "Sigma non-opioid intracellular receptor 1 (Homo sapiens, UniProt Q99720)", "sequence (Q99720 whole entry)": "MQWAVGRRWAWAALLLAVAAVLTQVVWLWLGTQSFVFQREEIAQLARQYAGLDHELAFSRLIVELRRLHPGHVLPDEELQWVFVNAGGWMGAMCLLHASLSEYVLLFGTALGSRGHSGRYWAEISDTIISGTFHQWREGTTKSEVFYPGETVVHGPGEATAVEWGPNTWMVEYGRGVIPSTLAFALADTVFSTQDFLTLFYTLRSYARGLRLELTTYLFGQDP", "assay": "as §1, with “SIGMAR1” for “OPRD1”"}, "[13]": {"biological_target": "Muscarinic acetylcholine receptor M3 (Homo sapiens, UniProt P20309)", "sequence (P20309 whole entry)": "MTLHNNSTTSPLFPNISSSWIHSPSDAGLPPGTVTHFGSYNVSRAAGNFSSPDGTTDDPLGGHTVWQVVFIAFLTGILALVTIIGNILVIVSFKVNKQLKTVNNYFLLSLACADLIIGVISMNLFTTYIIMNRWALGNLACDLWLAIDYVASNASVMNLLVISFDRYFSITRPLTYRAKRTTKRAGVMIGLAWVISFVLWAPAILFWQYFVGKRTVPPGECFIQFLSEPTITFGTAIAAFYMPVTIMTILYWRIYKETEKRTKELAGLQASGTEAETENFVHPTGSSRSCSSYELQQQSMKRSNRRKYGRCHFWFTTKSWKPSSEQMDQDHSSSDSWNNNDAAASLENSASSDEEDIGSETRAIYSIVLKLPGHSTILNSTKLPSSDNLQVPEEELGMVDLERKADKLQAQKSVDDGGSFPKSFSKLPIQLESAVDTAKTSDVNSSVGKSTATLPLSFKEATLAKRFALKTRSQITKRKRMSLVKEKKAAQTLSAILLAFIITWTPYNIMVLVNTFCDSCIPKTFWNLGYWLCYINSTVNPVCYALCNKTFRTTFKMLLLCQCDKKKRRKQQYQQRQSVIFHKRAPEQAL", "assay": "as §1, with “CHRM3” for “OPRD1”"}, "[14]": {"biological_target": "Kappa-type opioid receptor (Homo sapiens, UniProt P41145)", "sequence (P41145 whole entry)": "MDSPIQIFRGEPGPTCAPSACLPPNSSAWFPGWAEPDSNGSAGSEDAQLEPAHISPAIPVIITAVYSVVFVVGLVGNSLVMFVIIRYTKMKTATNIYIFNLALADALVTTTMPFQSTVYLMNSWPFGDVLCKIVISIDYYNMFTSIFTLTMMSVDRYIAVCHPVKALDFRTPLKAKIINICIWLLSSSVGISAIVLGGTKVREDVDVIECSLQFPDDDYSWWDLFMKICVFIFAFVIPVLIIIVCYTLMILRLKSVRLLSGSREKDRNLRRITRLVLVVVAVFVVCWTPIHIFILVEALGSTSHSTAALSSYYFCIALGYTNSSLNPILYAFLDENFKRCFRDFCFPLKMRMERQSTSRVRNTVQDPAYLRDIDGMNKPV", "assay": "as §1, with “OPRK1” for “OPRD1”"}},
  "data": [
    {"smiles": "N#Cc1c(N)nc(SCc2csc(-c3ccc(Cl)cc3)n2)c(C#N)c1-c1ccc(OCCO)cc1", "note": "[CAPADENOSON]", "values": [
      {"measurement": "Ki", "setting": "[1]", "value": "> 10000", "unit": "nM"},
      {"measurement": "Ki", "setting": "[2]", "value": 3.19, "unit": "µM"}
    ]},
    {"smiles": "C[C@@H](N)Cc1c[nH]cn1", "values": [
      {"measurement": "Ki", "setting": "Histamine H4 receptor", "value": 169, "unit": "nM"}
    ]},
    {"smiles": "N=C(N)SCCc1cnc[nH]1", "values": [
      {"measurement": "Ki", "setting": "[3]", "value": 4.04, "unit": "µM"},
      {"measurement": "Ki", "setting": "Histamine H4 receptor", "value": 4.86, "unit": "nM"},
      {"measurement": "Ki", "setting": "Histamine H3 receptor", "value": 0.632, "unit": "nM"}
    ]},
    {"smiles": "CN(C(=O)Cc1ccc(Cl)c(Cl)c1)C(CN1CCCC1)c1cccc(OCC(=O)O)c1", "note": "(stereo not drawn)", "values": [
      {"measurement": "Ki", "setting": "[1]", "value": 411, "unit": "nM"},
      {"measurement": "Ki", "setting": "[4]", "value": 5.91, "unit": "µM"},
      {"measurement": "Ki", "setting": "Mu-type opioid receptor", "value": 323, "unit": "nM"}
    ]},
    {"smiles": "Cc1c(C2=CCN(C(=O)N(C)C(C)C)CC2)nnn1-c1cccnc1F", "values": [
      {"measurement": "Ki", "setting": "[5]", "value": "> 10", "unit": "µM"},
      {"measurement": "Ki", "setting": "[1]", "value": "> 10000", "unit": "nM"},
      {"measurement": "Ki", "setting": "[6]", "value": 8.12, "unit": "µM"},
      {"measurement": "Ki", "setting": "Histamine H1 receptor", "value": 1450, "unit": "nM"},
      {"measurement": "Ki", "setting": "[7]", "value": "> 10", "unit": "µM"}
    ]},
    {"smiles": "Cc1cn2cc(CC(=O)N3CCC4(CC3)CN(Cc3ccc(-n5nccn5)cc3Cl)C4)nc2s1", "values": [
      {"measurement": "Ki", "setting": "[8]", "value": "> 10", "unit": "µM"},
      {"measurement": "Ki", "setting": "D(4) dopamine receptor", "value": 1360, "unit": "nM"},
      {"measurement": "Ki", "setting": "[9]", "value": 243, "unit": "nM"},
      {"measurement": "Ki", "setting": "[10]", "value": 846, "unit": "nM"},
      {"measurement": "Ki", "setting": "Histamine H2 receptor", "value": 3.3, "unit": "µM"},
      {"measurement": "Ki", "setting": "[11]", "value": 181, "unit": "nM"},
      {"measurement": "Ki", "setting": "D(3) dopamine receptor", "value": 480, "unit": "nM"},
      {"measurement": "Ki", "setting": "[4]", "value": 0.662, "unit": "µM"},
      {"measurement": "Ki", "setting": "[12]", "value": 520, "unit": "nM"},
      {"measurement": "Ki", "setting": "[13]", "value": 1530, "unit": "nM"}
    ]},
    {"smiles": "C=CCN1C[C@H](C)N([C@H](c2ccc(C(=O)N(CC)CC)cc2)c2cccc(O)c2)C[C@H]1C", "values": [
      {"measurement": "Ki", "setting": "[14]", "value": 23.3, "unit": "nM"},
      {"measurement": "Ki", "setting": "[1]", "value": 3.85, "unit": "nM"},
      {"measurement": "Ki", "setting": "[12]", "value": 108, "unit": "nM"},
      {"measurement": "Ki", "setting": "Mu-type opioid receptor", "value": 14.7, "unit": "nM"}
    ]}
  ]
}
